# From patent publication US11666600B2, “Methods for culturing and/or differentiating hematopoietic stem cells into progenitors and uses thereof” (HEMA-QUEBEC, priority 2015, dated 2023)
# Columns and labels:
# [1] = test system: CD34+ cells from human umbilical cord blood; test: CD34+ cell culture and expansion while limiting differentiation (StemSpan ACF + CC110), flow cytometry; assay type: cell-based
# Experimental: CD34+ cells were isolated from human umbilical cord blood by positive selection according to standard procedures. Purified CD34+ cells from either single units or pooled from several units of cord blood were seeded in 1 mL of the appropriate culture medium in 24-well plates at a density of approximately 10^5 cells/mL. Cells were maintained at a density of 10^5-10^6 cells/mL throughout the culture by dilution and/or medium replacement.
# For CD34+ cell culture and expansion while limiting differentiation, cells were grown in StemSpan™-ACF medium ([…]™ Technologies) supplemented with StemSpan™ CC110 cytokine cocktail ([…]™ Technologies), and counted on days 4, 7, 10, 14, 17, and 21.
# Cell counts and viability were measured using the NucleoCounter NC-250™ Viability and Cell Count Assay system (ChemoMetec Inc., Davis, Calif.), according to the manufacturer's instructions.
# Cell phenotypes were determined by flow cytometry on the indicated days using the following panel of labeled primary antibodies: CD34-FITC, CD45RA-APC, CD41a-APC, CD42b-PE, and CD235-PE.
# CD34+ cells were isolated and cultured in a medium suitable for maintaining their self-renewal while limiting their differentiation into progenitors (StemSpan™ ACF supplemented with StemSpan™ CC110 cytokine cocktail, as described in Example 1.2).
# Cell phenotypic profiles of the expanded CD34+ cells were determined on days 4, 7, 10, 14, 17, and 21 by flow cytometry as described in Example 1.3.
# [2] = test system: CD34+/CD45RA− mobilized peripheral blood cells; conditions: Fares et al., 2014; cited from earlier work
# [3] = test system: aryl hydrocarbon receptor (AhR) pathway; conditions: Fares et al., 2014; cited from earlier work
smiles,measurement,setting,value
"Cl.Cn1nnc(-c2ccc3c(c2)[nH]c2nc(Cc4ccccc4)nc(N[C@H]4CC[C@H](N)CC4)c23)n1 [PIC, (1r,4r)-N1-(2-benzyl-7-(2-methyl-2H-tetrazol-5-yl)-9H-pyrimido[4,5-b]indol-4-yl)cyclohexane-1,4-diamine hydrochloride]",Percentage of cells bearing CD34+/CD235+,"[1]; Day 4, 39° C. + PIC 35 nM",3.65%
same,Percentage of cells bearing CD41+,"[1]; Day 4, 39° C. + PIC 35 nM",9.05%
same,Percentage of cells bearing CD42+,"[1]; Day 4, 39° C. + PIC 35 nM",2.21%
same,Percentage of cells bearing CD45RA+,"[1]; Day 4, 39° C. + PIC 35 nM",57.92%
same,Percentage of cells bearing CD235+,"[1]; Day 4, 39° C. + PIC 35 nM",4.11%
same,Percentage of cells bearing CD34+,"[1]; Day 7, 37° C. + PIC 35 nM",94.61%
same,Percentage of cells bearing CD34+/CD41+,"[1]; Day 7, 37° C. + PIC 35 nM",15.74%
same,Percentage of cells bearing CD34+/CD235+,"[1]; Day 7, 37° C. + PIC 35 nM",5.28%
same,Percentage of cells bearing CD41+,"[1]; Day 7, 37° C. + PIC 35 nM",15.93%
same,Percentage of cells bearing CD42+,"[1]; Day 7, 37° C. + PIC 35 nM",1.30%
same,Percentage of cells bearing CD45RA+,"[1]; Day 7, 37° C. + PIC 35 nM",80.07%
same,Percentage of cells bearing CD34+,"[1]; Day 7, 39° C. + PIC 35 nM",88.27%
same,Percentage of cells bearing CD34+/CD41+,"[1]; Day 7, 39° C. + PIC 35 nM",16.17%
same,Percentage of cells bearing CD34+/CD235+,"[1]; Day 7, 39° C. + PIC 35 nM",9.68%
same,Percentage of cells bearing CD41+,"[1]; Day 7, 39° C. + PIC 35 nM",18.12%
same,Percentage of cells bearing CD42+,"[1]; Day 7, 39° C. + PIC 35 nM",2.92%
same,Percentage of cells bearing CD45RA+,"[1]; Day 7, 39° C. + PIC 35 nM",74.14%
same,Percentage of cells bearing CD235+,"[1]; Day 7, 39° C. + PIC 35 nM",10.89%
same,Percentage of cells bearing CD34+,"[1]; Day 10, 37° C. + PIC 35 nM",84.26%
same,Percentage of cells bearing CD34+/CD41+,"[1]; Day 10, 37° C. + PIC 35 nM",12.94%
same,Percentage of cells bearing CD34+/CD235+,"[1]; Day 10, 37° C. + PIC 35 nM",2.16%
same,Percentage of cells bearing CD41+,"[1]; Day 10, 37° C. + PIC 35 nM",14.19%
same,Percentage of cells bearing CD42+,"[1]; Day 10, 37° C. + PIC 35 nM",0.48%
same,Percentage of cells bearing CD45RA+,"[1]; Day 10, 37° C. + PIC 35 nM",88.37%
same,Percentage of cells bearing CD235+,"[1]; Day 10, 37° C. + PIC 35 nM",2.33%
same,Percentage of cells bearing CD34+,"[1]; Day 10, 39° C. + PIC 35 nM",71.28%
same,Percentage of cells bearing CD34+/CD41+,"[1]; Day 10, 39° C. + PIC 35 nM",20.80%
same,Percentage of cells bearing CD34+/CD235+,"[1]; Day 10, 39° C. + PIC 35 nM",7.94%
same,Percentage of cells bearing CD41+,"[1]; Day 10, 39° C. + PIC 35 nM",27.40%
same,Percentage of cells bearing CD42+,"[1]; Day 10, 39° C. + PIC 35 nM",1.35%
same,Percentage of cells bearing CD45RA+,"[1]; Day 10, 39° C. + PIC 35 nM",82.34%
same,Percentage of cells bearing CD235+,"[1]; Day 10, 39° C. + PIC 35 nM",9.36%
same,Percentage of cells bearing CD34+,"[1]; Day 14, 37° C. + PIC 35 nM",58.28%
same,Percentage of cells bearing CD34+/CD41+,"[1]; Day 14, 37° C. + PIC 35 nM",9.55%
same,Percentage of cells bearing CD34+/CD45RA−,"[1]; Day 14, 37° C. + PIC 35 nM",15.22%
same,Percentage of cells bearing CD34+/CD235+,"[1]; Day 14, 37° C. + PIC 35 nM",1.39%
same,Percentage of cells bearing CD41+,"[1]; Day 14, 37° C. + PIC 35 nM",15.16%
same,Percentage of cells bearing CD42+,"[1]; Day 14, 37° C. + PIC 35 nM",0.19%
same,Percentage of cells bearing CD45RA+,"[1]; Day 14, 37° C. + PIC 35 nM",84.63%
same,Percentage of cells bearing CD235+,"[1]; Day 14, 37° C. + PIC 35 nM",2.10%
same,Percentage of cells bearing CD34+,"[1]; Day 14, 39° C. + PIC 35 nM",48.58%
same,Percentage of cells bearing CD34+/CD41+,"[1]; Day 14, 39° C. + PIC 35 nM",13.88%
same,Percentage of cells bearing CD34+/CD45RA−,"[1]; Day 14, 39° C. + PIC 35 nM",19.74%
same,Percentage of cells bearing CD34+/CD235+,"[1]; Day 14, 39° C. + PIC 35 nM",3.72%
same,Percentage of cells bearing CD41+,"[1]; Day 14, 39° C. + PIC 35 nM",32.04%
same,Percentage of cells bearing CD42+,"[1]; Day 14, 39° C. + PIC 35 nM",1.16%
same,Percentage of cells bearing CD45RA+,"[1]; Day 14, 39° C. + PIC 35 nM",81.97%
same,Percentage of cells bearing CD34+,"[1]; Day 17, 37° C. + PIC 35 nM",48.29%
same,Percentage of cells bearing CD34+/CD41+,"[1]; Day 17, 37° C. + PIC 35 nM",9.75%
same,Percentage of cells bearing CD34+/CD45RA−,"[1]; Day 17, 37° C. + PIC 35 nM",13.58%
same,Percentage of cells bearing CD34+/CD235+,"[1]; Day 17, 37° C. + PIC 35 nM",0.52%
same,Percentage of cells bearing CD41+,"[1]; Day 17, 37° C. + PIC 35 nM",24.70%
same,Percentage of cells bearing CD42+,"[1]; Day 17, 37° C. + PIC 35 nM",0.63%
same,Percentage of cells bearing CD45RA+,"[1]; Day 17, 37° C. + PIC 35 nM",87.89%
same,Percentage of cells bearing CD235+,"[1]; Day 17, 37° C. + PIC 35 nM",3.94%
same,differentiation of the cells towards the megakaryocytic and erythroid (CD235+) lineages,[1]; combined mild hyperthermia (39° C.) and PIC 35 nM,did not lead to an enhanced differentiation
same,expansion of CD34+/CD45RA− mobilized peripheral blood cells (enriched in LT-HSCs),[2],stimulate expansion
same,suppression of the aryl hydrocarbon receptor (AhR) pathway,[3],without acting as suppressors
